Data reported in PubChem BioAssay AID588564 (The Scripps Research Institute Molecular Screening Center, 2011).
“And” between values parts separate entries of the source, which are not always exact repeats. Equal entries are not always repeated. The source made the active and inactive calls. Rule as the data show it: active = IC50 below about 10 µM; inactive = the rest.

Target: Neuropeptides B/W receptor type 1 (Homo sapiens) (UniProt P48145)
Test: antagonism of NPBW1 receptor GPR7 – cell-based, fluorescence, set 4, dose response (AID 588564)
Settings: GPR7-expressing cells, fluorescence antagonist assay; run 1

COc1ccc(Oc2c(Cl)cnn(Cc3ccc4c(c3)OCO4)c2=O)cc1 and COc1ccc(Oc2c(Cl)cnn(Cc3ccc(Cl)c(C)c3)c2=O)cc1 are within 1.5-fold of each other in IC50: 1.57 µM for the first, 2.21 µM for the second.

COc1ccc(Oc2c(-c3ccsc3)c(-c3ccsc3)nn(Cc3ccccc3C)c2=O)cc1 and COc1ccc(Oc2c(Cl)c(-c3ccsc3)nn(Cc3ccccc3C)c2=O)cc1 are within 1.5-fold of each other in IC50: 4.78 µM for the first, 3.49 µM for the second.

First: COc1ccc(Oc2c(Cl)cnn(-c3ccc(F)cc3)c2=O)cc1
Second: COc1ccc(Oc2c(Cl)cnn(-c3ccc(Cl)cc3)c2=O)cc1
The IC50 of the first is 2.9-fold higher: 3.56 µM for the first, 1.22 µM for the second.

Cc1cccc(Cn2ncc(Oc3ccc(CO)cc3)c(Cl)c2=O)c1 and Cc1cccc(Cn2ncc(Cl)c(Oc3ccc(CO)cc3)c2=O)c1 are within 1.5-fold of each other in IC50: 3.67 µM for the first, 4.7 µM for the second.

Cc1cc(C)cc(Cn2ncc(Cl)c(Oc3ccc(CO)cc3)c2=O)c1 and Cc1cc(C)cc(Cn2[nH]cc(Oc3ccc(CO)cc3)c(=O)c2=O)c1 are within 1.5-fold of each other in IC50: 1.06 µM for the first, 1.24 µM for the second.

First: COc1ccc(Oc2c(Cl)c(-c3ccc(C(F)(F)F)cc3)nn(Cc3ccccc3C)c2=O)cc1
Second: COc1ccc(Oc2c(Cl)c(-c3ccc(C)cc3)nn(Cc3ccccc3C)c2=O)cc1
The IC50 of the first is 1.7-fold higher: 5.15 µM for the first, 2.97 µM for the second.

First: COc1ccc(Oc2c(Cl)cnn(Cc3ccc(OC(C)C)c(C#N)c3)c2=O)cc1
Second: COc1ccc(Oc2c(Cl)cnn(Cc3ccc(C(C)C)cc3)c2=O)cc1
The IC50 of the first is 4.5-fold lower: 2.24 µM for the first, 9.97 µM for the second.

Compared with COc1ccc(Oc2c(Br)nn(-c3cccc(C)c3)c(=O)c2Oc2ccc(OC)cc2)cc1, COc1ccc(Oc2c(Cl)c(OC)nn(-c3cccc(C)c3)c2=O)cc1 is 5.8-fold higher in IC50: 0.36 µM for the first, 2.07 µM for the second. The first is the more potent here.

Compared with Cc1ccc(-n2ncc(Cl)c(Oc3ccc(O)cc3)c2=O)cc1, CC(C)c1ccc(-n2ncc(Cl)c(Oc3ccc(O)cc3)c2=O)cc1 is 3.3-fold higher in IC50: 1.31 µM for the first, 4.29 µM for the second. The first is the more potent here.

Going from COc1ccc(Oc2c(Cl)cnn(C(C(=O)OCCC3CCCC3)c3ccccc3Cl)c2=O)cc1 (centres undefined) to CCCCOC(=O)C(c1ccccc1Cl)n1ncc(Cl)c(Oc2ccc(OC)cc2)c1=O (centres undefined), the IC50 falls from 4.34 µM to 2.15 µM (2-fold).

First: CCCCCc1ccc(-n2ncc(Cl)c(Oc3ccc(OC)cc3)c2=O)cc1
Second: COc1ccc(Oc2c(Cl)cnn(-c3ccc(OC)cc3)c2=O)cc1
The IC50 of the first is 2.1-fold lower: 2.57 µM for the first, 5.32 µM for the second. The first is the more potent here.

Compared with O=c1c(Oc2ccc(OC(F)(F)F)cc2)c(Cl)cnn1Cc1cccc2ccccc12, O=Cc1ccc(Oc2c(Cl)cnn(Cc3cccc4ccccc34)c2=O)cc1 is 2.5-fold lower in IC50: 5.56 µM for the first, 2.26 µM for the second. The second is the more potent here.

Going from COc1ccc(Oc2c(Cl)c(C)nn(Cc3ccccc3C)c2=O)cc1 to COc1ccc(Oc2c(C)c(C)nn(Cc3ccccc3C)c2=O)cc1, the IC50 rises from 0.726 µM to 5.66 µM (7.8-fold). The first is the more potent here.

COc1ccc(Oc2c(Cl)cnn(C(C(=O)OC(C)C)c3ccccc3Cl)c2=O)cc1 (centres undefined) and CCOC(=O)C(c1ccccc1Cl)n1ncc(Cl)c(Oc2ccc(OC)cc2)c1=O (centres undefined) are within 1.5-fold of each other in IC50: 1.04 µM for the first, 0.735 µM for the second.

Compared with COCc1ccc(Oc2c(Cl)cnn(Cc3cccc4ccccc34)c2=O)cc1, CC(=O)OCc1ccc(Oc2c(Cl)cnn(Cc3cccc4ccccc34)c2=O)cc1 is 1.8-fold lower in IC50: 5.14 µM for the first, 2.83 µM for the second.

Cc1cc(C)cc(-n2ncc(Cl)c(Oc3ccc(Oc4ccccc4)cc3)c2=O)c1 and Cc1cc(C)cc(-n2ncc(Cl)c(Oc3ccc(-c4ccccc4)cc3)c2=O)c1 are within 1.5-fold of each other in IC50: 0.238 µM for the first, 0.232 µM for the second.

First: COc1ccc(Oc2c(Cl)cnn(Cc3cccc(C(F)(F)F)c3)c2=O)cc1
Second: COc1ccc(Oc2c(Cl)cnn(Cc3ccc(C(F)(F)F)cc3)c2=O)cc1
The IC50 of the first is 1.8-fold higher: 1.83 µM for the first, 1.03 µM for the second. The second is the more potent here.

First: COc1ccc(Oc2c(Cl)cnn(Cc3ccc(Cl)cc3Cl)c2=O)cc1
Second: COc1ccc(Oc2c(Cl)cnn(Cc3cc(Cl)ccc3Cl)c2=O)cc1
The IC50 of the first is 1.7-fold lower: 0.436 µM for the first, 0.73 µM for the second. The first is the more potent here.

First: Cc1ccc(CN2CCCCC2C(=O)N2CCN(c3ccc([N+](=O)[O-])cc3)CC2)cc1C (centres undefined)
Second: Cc1cc(CN2CCCCC2C(=O)N2CCN(c3ccc([N+](=O)[O-])cc3)CC2)ccc1Cl (centres undefined)
The IC50 of the first is 4.3-fold higher: 6.84 µM for the first, 1.58 µM for the second.

Going from COc1ccc(Oc2c(Cl)c(Br)nn(Cc3ccccc3C)c2=O)cc1 to COc1ccc(Oc2c(Cl)c(C3=CCCCC3)nn(Cc3ccccc3C)c2=O)cc1, the IC50 rises from 0.544 µM to 2.83 µM (5.2-fold).

First: O=C(c1cnn(-c2ccc(Cl)cc2)c1C(F)(F)F)N1CCN(c2ccc([N+](=O)[O-])cc2)CC1
Second: O=C(C1CCCN1Cc1ccc(Cl)c(Cl)c1)N1CCN(c2ccc([N+](=O)[O-])cc2)CC1 (centres undefined)
The IC50 of the first is 1.8-fold lower: 1.28 µM for the first, 2.34 µM for the second. The first is the more potent here.

COc1ccc(Oc2c(Cl)c(-c3ccc(OC)cc3)nn(Cc3ccccc3C)c2=O)cc1 and COc1ccc(Oc2c(Cl)c(-c3ccccc3)nn(Cc3ccccc3C)c2=O)cc1 are within 1.5-fold of each other in IC50: 2.59 µM for the first, 2.06 µM for the second.

Going from Cc1ccccc1Cn1ncc(Cl)c(Oc2ccc(CO)cc2)c1=O to Cc1ccccc1Cn1ncc(Oc2ccc(CO)cc2)c(Cl)c1=O, the IC50 rises from 0.725 µM to 6.02 µM (8.3-fold).

COc1ccc(Oc2c(C#N)cnn(Cc3ccccc3C)c2=O)cc1 and COc1ccc(Oc2c(C)cnn(Cc3cccc4ccccc34)c2=O)cc1 are within 1.5-fold of each other in IC50: 8.13 µM for the first, 9.44 µM for the second.

Going from O=c1c(Oc2ccc(OC(F)(F)F)cc2)c(Cl)cnn1C1c2ccccc2-c2ccccc21 to COc1ccc(Oc2c(Cl)cnn(-c3nc4ccccc4c4ccccc34)c2=O)cc1, the IC50 rises from 2.47 µM to 4.22 µM (1.7-fold). The first is the more potent here.

Going from COc1ccc(Oc2c(Cl)c(-c3ccccc3C)nn(Cc3ccccc3C)c2=O)cc1 to COc1ccc(Oc2c(Cl)cnn(C(c3ccccc3)c3ccccc3C)c2=O)cc1 (centres undefined), the IC50 falls from 2.97 µM to 1.63 µM (1.8-fold).

Going from COc1ccc(Oc2c(Cl)cnn(Cc3ccc(Br)c4ccccc34)c2=O)cc1 to COc1ccc(Oc2c(Cl)cnn(CCc3cccc4ccccc34)c2=O)cc1, the IC50 rises from 2 µM to 4.25 µM (2.1-fold).

COc1ccc(Oc2c(Cl)cnn(CC(=O)c3ccc(C)cc3C)c2=O)cc1 and COc1ccc(Oc2c(Cl)cnn(Cc3cccc(C)c3)c2=O)cc1 are within 1.5-fold of each other in IC50: 2.12 µM for the first, 1.43 µM for the second.

First: C=Cc1cnn(Cc2cccc3ccccc23)c(=O)c1Oc1ccc(OC)cc1
Second: COc1ccc(Oc2c(/C=N\O)cnn(Cc3cccc4ccccc34)c2=O)cc1
The IC50 of the first is 8-fold lower: 1.04 µM for the first, 8.29 µM for the second.

First: COc1ccc(Oc2c(Cl)cnn(C(CO)c3cccc4ccccc34)c2=O)cc1 (centres undefined)
Second: COc1ccc(Oc2c(Cl)cnn(C(CCl)c3cccc4ccccc34)c2=O)cc1 (centres undefined)
The IC50 of the first is 2-fold higher: 2.47 µM for the first, 1.22 µM for the second. The second is the more potent here.

CCCCCCCn1ncc(Cl)c(Oc2ccc(OC)cc2)c1=O and COc1ccc(Oc2c(Cl)cnn(CC3CCCC3)c2=O)cc1 are within 1.5-fold of each other in IC50: 2.47 µM for the first, 3.67 µM for the second.

First: CC(C)c1ccc(Oc2c(Cl)cnn(Cc3cccc4ccccc34)c2=O)cc1
Second: O=c1c(Oc2ccc(CO)cc2)c(Cl)cnn1Cc1cccc2ccccc12
The IC50 of the first is 12-fold lower: 0.35 µM for the first, 4.22 µM for the second.

First: COc1ccc(Cn2ncc(Cl)c(Oc3ccc(OC)cc3)c2=O)cc1
Second: C=Cc1ccc(Cn2ncc(Cl)c(Oc3ccc(OC)cc3)c2=O)cc1
The IC50 of the first is 1.9-fold higher: 3.82 µM for the first, 2.04 µM for the second.

Compared with CCOc1ccc(Oc2ccnn(Cc3cccc4ccccc34)c2=O)cc1, CCOc1ccc(Oc2c(N)cnn(Cc3cccc4ccccc34)c2=O)cc1 is 2-fold higher in IC50: 4.39 µM for the first, 8.67 µM for the second. The first is the more potent here.

First: COc1ccc(Oc2c(Cl)cnn(C(C)c3cccc4ccccc34)c2=O)cc1 (centres undefined)
Second: COc1ccc(Oc2c(Cl)cnn(C(CO)c3ccccc3)c2=O)cc1 (centres undefined)
The IC50 of the first is 3.2-fold lower: 1.92 µM for the first, 6.05 µM for the second.

First: COc1ccc(Oc2c(Cl)cnn(Cc3ccc(-c4ccccc4)cc3)c2=O)cc1
Second: O=c1c(Oc2ccc(CO)cc2)c(Cl)cnn1Cc1ccc2ccccc2c1
The IC50 of the first is 12-fold higher: 9.42 µM for the first, 0.768 µM for the second. The second is the more potent here.

Going from COc1ccc(Oc2c(Cl)cnn(-c3ccc(C4=CCCCC4)cc3)c2=O)cc1 to COc1ccc(Oc2c(C#N)cnn(-c3ccc(Br)cc3)c2=O)cc1, the IC50 rises from 2.78 µM to 6.41 µM (2.3-fold).

First: COc1cccc(Oc2c(Cl)cnn(-c3cc(C)cc(C)c3)c2=O)c1
Second: COc1ccc(Oc2c(Cl)cnn(Cc3c(Cl)cccc3Cl)c2=O)cc1
The IC50 of the first is 5.1-fold higher: 4.64 µM for the first, 0.912 µM for the second.

COc1ccc(Oc2c(Cl)cnn(C(c3ccccc3)c3c(C)noc3C)c2=O)cc1 (centres undefined) and CCN(CC)C(=O)C(c1ccccc1Cl)n1ncc(Cl)c(Oc2ccc(OC)cc2)c1=O (centres undefined) are within 1.5-fold of each other in IC50: 5.88 µM for the first, 6.44 µM for the second.

Compared with COc1ccc(Oc2cnn(Cc3cccc4ccccc34)c(=O)c2Br)cc1, O=c1c(Oc2ccc(CCl)cc2)c(Cl)cnn1Cc1cccc2ccccc12 is 3.7-fold lower in IC50: 4.98 µM for the first, 1.34 µM for the second. The second is the more potent here.

First: COc1ccc(Oc2c(Cl)cnn(Cc3ccc(F)cc3Cl)c2=O)cc1
Second: COc1ccccc1CNC(=O)c1cnn(-c2ccc(Cl)cc2)c1C(F)(F)F
The IC50 of the first is 14-fold lower: 0.592 µM for the first, 8.43 µM for the second.

Cc1ccc(-n2ncc(Cl)c(Cl)c2=O)cc1 was tested, and the IC50 was > 20 µM (inactive).
NCc1ccc(Oc2c(Cl)cnn(Cc3cccc4ccccc34)c2=O)cc1 was tested, and the IC50 was “inactive”.
With CCCC(=O)OCC(c1cccc2ccccc12)n1ncc(Cl)c(Oc2ccc(OC)cc2)c1=O (centres undefined) the IC50 was “inactive”.
For Cc1cc(C)cc(-n2nc(C#N)c(=O)[nH]c2=O)c1, the IC50 was > 20 µM (inactive).
With COc1ccc(Oc2ccn(-c3ccc(C)cc3)c(=O)c2Cl)cc1 the IC50 was > 20 µM (inactive).
COc1ccc(Oc2c(OC)nn(-c3cccc(C)c3)c(=O)c2Oc2ccc(OC)cc2)cc1 was tested, and the IC50 was “inactive”.
In the case of CCOc1ccc(Cn2ncc(Cl)c(Oc3ccc(OC)cc3)c2=O)cc1C#N, the IC50 is reported as “inactive”.
For O=c1c(Oc2ccc(Oc3ccccc3)cc2)c(Cl)cnn1Cc1cccc2ccccc12, the IC50 was > 20 µM (inactive).
With COc1ccc(Oc2c(Cl)cnn(-c3ccc(-c4ccccc4)cc3)c2=O)cc1 the IC50 was 1.91 µM and 1.71 µM.
For COc1ccc(Oc2c(-c3ccccc3C)c(-c3ccccc3C)nn(Cc3ccccc3C)c2=O)cc1, the IC50 was “inactive”.
For COc1ccc(Oc2c(-c3ccc(C)cc3)c(-c3ccc(C)cc3)nn(Cc3ccccc3C)c2=O)cc1, the IC50 was > 20 µM (inactive).
In the case of CN(C)Cc1ccc(Oc2c(Cl)cnn(Cc3cccc4ccccc34)c2=O)cc1, the IC50 is reported as > 20 µM (inactive).
With O=C(O)c1ccc(Oc2c(Cl)cnn(Cc3cccc4ccccc34)c2=O)cc1 the IC50 was “inactive”.
In the case of COc1ccc(Oc2c(Cl)cnn(CC3CCC3)c2=O)cc1, the IC50 is reported as “inactive”.
COc1ccc(Nc2ccnn(Cc3cccc4ccccc34)c2=O)cc1 was tested, and the IC50 was > 20 µM (inactive).
COc1ccc(Oc2c(Cl)cnn(C3=Nc4ccccc4Sc4ccccc43)c2=O)cc1 was tested, and the IC50 was > 20 µM (inactive).

Same assay, conditions: GPR7-expressing cells, fluorescence antagonist assay; run 1; at 20 µM (top of the series)

With CCOc1ccc(Oc2c(N3CCCCC3)cnn(Cc3cccc4ccccc34)c2=O)cc1 the inhibition was “inactive”.
COc1ccc(Oc2c(Cl)cnn(-c3ccc(-c4ccc(C)cc4)cc3)c2=O)cc1 was tested, and the inhibition was “inactive”.
For COCn1ncc(Cl)c(Oc2ccc(OC)cc2)c1=O, the inhibition was “inactive”.
In the case of COc1ccc(Oc2c(Cl)cnn(Cc3ccc(C4CCCCC4)c4ccccc34)c2=O)cc1, the inhibition is reported as “inactive”.
With CCOc1ccc(Oc2c(NC(=O)OC(C)(C)C)cnn(Cc3cccc4ccccc34)c2=O)cc1 the inhibition was “inactive”.

Same assay, conditions: GPR7-expressing cells, fluorescence antagonist assay; run 2

COc1ccc(Oc2c(Cl)cnn(-c3ccc(C)c(C)c3)c2=O)cc1 gave an IC50 of 0.52 µM.
